Each structure is given as a SMILES string.

For the assay, the system named is DLD-1 BRCA2−/− cells. The assay can be described thus: Homologous recombination synthetic lethal inhibition of proliferation, DLD-1 BRCA2-/- (Cell Titre Glo 3D). The following applies: Homo sapiens, DLD-1, first proliferation column (c5), taken as DLD-1 BRCA2-/-; read-out: POLQ PD Prolif Lumin (converted). The assay is classed as cell-based. The gist of the method: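 Luminescent Cell Titre Glo 3D readout, taken on day 12 for homologous-recombination-deficient DLD-1 BRCA2−/− and day 7 for the wild-type control, after compound refresh on day 6. Compounds spanned 10 μM to 0.51 nM in three-fold steps; IC50 defined as 50% reduction of average maximum signal.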
Regarding `Cc1ccnc(Cn2c(-c3ccc(OCC(=O)NCCCF)cc3Cl)nc3c(OC4(C)CC4)ncnc32)c1` [Example T328, 2-(3-chloro-4-(6-(1-methylcyclopropoxy)-9-((4-methylpyridin-2-yl)methyl)-9H-purin-8-yl)phenoxy)-N-(3-fluoropropyl)acetamide], the IC50 was 0.398 µM. `COC1(COc2ccc(-c3nc4c(OC5(C)CC5)ncnc4n3Cc3cc(C)ccn3)c(Cl)c2)COC1` [Example T333, 8-(2-chloro-4-((3-methoxyoxetan-3-yl)methoxy)phenyl)-6-(1-methylcyclopropoxy)-9-((4-methylpyridin-2-yl)methyl)-9H-purine]: the IC50 was 0.251 µM.

Regarding `Cc1ccnc(Cn2c(-c3ccc(OCCC4(O)COC4)cc3Cl)nc3c(OC4(C)CC4)ncnc32)c1` [Example T334, 3-(2-(3-chloro-4-(6-(1-methylcyclopropoxy)-9-((4-methylpyridin-2-yl)methyl)-9H-purin-8-yl)phenoxy)ethyl)oxetan-3-ol], the IC50 is 0.251 µM. In the case of `Cc1ccnc(Cn2c(-c3ccc(N4CCNCCC4=O)cc3Cl)nc3c(OC4(C)CC4)ncnc32)c1` [Example T338, 4-(3-chloro-4-(6-(1-methylcyclopropoxy)-9-((4-methylpyridin-2-yl)methyl)-9H-purin-8-yl)phenyl)-1,4-diazepan-5-one] it was 2 µM; in that of `Cc1ccnc(Cn2c(-c3ccc(N4CCNC(=O)CC4)cc3Cl)nc3c(OC4(C)CC4)ncnc32)c1` [Example T339, 1-(3-chloro-4-(6-(1-methylcyclopropoxy)-9-((4-methylpyridin-2-yl)methyl)-9H-purin-8-yl)phenyl)-1,4-diazepan-5-one], 0.501 µM. As to `Cc1ccnc(Cn2c(-c3ccc(N4CC[C@H](C(N)=O)C4)cc3Cl)nc3c(OC4(C)CC4)ncnc32)c1` [Example T340, (S)-1-(3-chloro-4-(6-(1-methylcyclopropoxy)-9-((4-methylpyridin-2-yl)methyl)-9H-purin-8-yl)phenyl)pyrrolidine-3-carboxamide], the IC50 is 1.26 µM.

As to `CNC(=O)C1CN(c2ccc(-c3nc4c(OC5(C)CC5)ncnc4n3Cc3cc(C)ccn3)c(Cl)c2)C1` [Example T341, 1-(3-chloro-4-(6-(1-methylcyclopropoxy)-9-((4-methylpyridin-2-yl)methyl)-9H-purin-8-yl)phenyl)-N-methylazetidine-3-carboxamide], the IC50 is 0.316 µM. `CNC(=O)N1CC(Oc2ccc(-c3nc4c(OC5(C)CC5)ncnc4n3Cc3cc(C)ccn3)c(Cl)c2)C1` [Example T343, 3-(3-chloro-4-(6-(1-methylcyclopropoxy)-9-((4-methylpyridin-2-yl)methyl)-9H-purin-8-yl)phenoxy)-N-methylazetidine-1-carboxamide]: the IC50 was 0.398 µM. As for `Cc1ccnc(Cn2c(-c3ccc(O[C@@H]4CCN(C(N)=O)C4)cc3Cl)nc3c(OC4(C)CC4)ncnc32)c1` [Example T344, (R)-3-(3-chloro-4-(6-(1-methylcyclopropoxy)-9-((4-methylpyridin-2-yl)methyl)-9H-purin-8-yl)phenoxy)pyrrolidine-1-carboxamide], the IC50 was 2 µM.

Regarding `CC1(Oc2ncnc3c2nc(-c2ccc(OCCN4CCNCC4)cc2Cl)n3Cc2ccc(F)cn2)CC1` [Example T350, 8-(2-chloro-4-(2-(piperazin-1-yl)ethoxy)phenyl)-9-((5-fluoropyridin-2-yl)methyl)-6-(1-methylcyclopropoxy)-9H-purine], the IC50 was 2.51 µM.

Turning to `CC1(Oc2ncnc3c2nc(-c2ccc(OCCN4CCNCC4)cc2Cl)n3Cc2ncccc2F)CC1` [Example T351, 8-(2-chloro-4-(2-(piperazin-1-yl)ethoxy)phenyl)-9-((3-fluoropyridin-2-yl)methyl)-6-(1-methylcyclopropoxy)-9H-purine], the IC50 is 3.16 µM. With `Cc1ccnc(Cn2c(-c3ccc(CCC(=O)N(C)C)cc3Cl)nc3c(OC4(C)CC4)ncnc32)c1` [Example T358, 3-(3-chloro-4-(6-(1-methylcyclopropoxy)-9-((4-methylpyridin-2-yl)methyl)-9H-purin-8-yl)phenyl)-N,N-dimethylpropanamide] the figure was 0.251 µM; with `CC[C@H](CO)NC(=O)c1ccc(-c2nc3c(OC4(C)CC4)ncnc3n2Cc2cc(C)ccn2)c(Cl)c1` [Example T361, (R)-3-chloro-N-(1-hydroxybutan-2-yl)-4-(6-(1-methylcyclopropoxy)-9-((4-methylpyridin-2-yl)methyl)-9H-purin-8-yl)benzamide], 0.631 µM. With `Cc1ccnc(Cn2c(-c3ccc(C(=O)NC(C)(C)CO)cc3Cl)nc3c(OC4(C)CC4)ncnc32)c1` [Example T362, 3-chloro-N-(1-hydroxy-2-methylpropan-2-yl)-4-(6-(1-methylcyclopropoxy)-9-((4-methylpyridin-2-yl)methyl)-9H-purin-8-yl)benzamide] the figure was 0.631 µM; with `Cc1ccnc(Cn2c(-c3ccc(C(=O)N[C@H](C)CCO)cc3Cl)nc3c(OC4(C)CC4)ncnc32)c1` [Example T364, (R)-3-chloro-N-(4-hydroxybutan-2-yl)-4-(6-(1-methylcyclopropoxy)-9-((4-methylpyridin-2-yl)methyl)-9H-purin-8-yl)benzamide], 0.794 µM; with `CC[C@@H](O)CNC(=O)c1ccc(-c2nc3c(OC4(C)CC4)ncnc3n2Cc2cc(C)ccn2)c(Cl)c1` [Example T365, (R)-3-chloro-N-(2-hydroxybutyl)-4-(6-(1-methylcyclopropoxy)-9-((4-methylpyridin-2-yl)methyl)-9H-purin-8-yl)benzamide], 0.794 µM. Regarding `Cc1ccnc(Cn2c(-c3ccc(OCC(=O)NC(C)C)cc3Cl)nc3c(OC4(C)CC4)ncnc32)c1` [Example T366, 2-(3-chloro-4-(6-(1-methylcyclopropoxy)-9-((4-methylpyridin-2-yl)methyl)-9H-purin-8-yl)phenoxy)-N-isopropylacetamide], the IC50 was 0.2 µM. In the case of `CC(=O)NCCCOc1ccc(-c2nc3c(OC4(C)CC4)ncnc3n2Cc2cc(C)ccn2)c(Cl)c1` [Example T367, N-(3-(3-chloro-4-(6-(1-methylcyclopropoxy)-9-((4-methylpyridin-2-yl)methyl)-9H-purin-8-yl)phenoxy)propyl)acetamide] it was 0.316 µM; in that of `Cc1ccnc(Cn2c(-c3ccc(CCNC(=O)[C@@H](C)O)cc3Cl)nc3c(OC4(C)CC4)ncnc32)c1` [Example T368, (R)-N-(3-chloro-4-(6-(1-methylcyclopropoxy)-9-((4-methylpyridin-2-yl)methyl)-9H-purin-8-yl)phenethyl)-2-hydroxypropanamide], 0.631 µM; in that of `Cc1ccnc(Cn2c(-c3ccc(CC(=O)NCCCO)cc3Cl)nc3c(OC4(C)CC4)ncnc32)c1` [Example T370, 2-(3-chloro-4-(6-(1-methylcyclopropoxy)-9-((4-methylpyridin-2-yl)methyl)-9H-purin-8-yl)phenyl)-N-(3-hydroxypropyl)acetamide], 1 µM. In the case of `Cc1ccnc(Cn2c(-c3ccc(OCC(=O)NC[C@H](C)O)cc3Cl)nc3c(OC4(C)CC4)ncnc32)c1` [Example T372, (S)-2-(3-chloro-4-(6-(1-methylcyclopropoxy)-9-((4-methylpyridin-2-yl)methyl)-9H-purin-8-yl)phenoxy)-N-(2-hydroxypropyl)acetamide] it was 0.398 µM. In the case of `Cc1ccnc(Cn2c(-c3ccc(OCC(=O)NCCCO)cc3Cl)nc3c(OC4(C)CC4)ncnc32)c1` [Example T373, 2-(3-chloro-4-(6-(1-methylcyclopropoxy)-9-((4-methylpyridin-2-yl)methyl)-9H-purin-8-yl)phenoxy)-N-(3-hydroxypropyl)acetamide] it was 0.316 µM; in that of `Cc1ccnc(Cn2c(-c3ccc(OCC(=O)N(C)CCO)cc3Cl)nc3c(OC4(C)CC4)ncnc32)c1` [Example T374, 2-(3-chloro-4-(6-(1-methylcyclopropoxy)-9-((4-methylpyridin-2-yl)methyl)-9H-purin-8-yl)phenoxy)-N-(2-hydroxyethyl)-N-methylacetamide], 1.26 µM. With `Cc1ccnc(Cn2c(-c3ccc(OCCNC(=O)[C@@H](C)O)cc3Cl)nc3c(OC4(C)CC4)ncnc32)c1` [Example T375, (R)-N-(2-(3-chloro-4-(6-(1-methylcyclopropoxy)-9-((4-methylpyridin-2-yl)methyl)-9H-purin-8-yl)phenoxy)ethyl)-2-hydroxypropanamide], the IC50 is 0.251 µM. In the case of `Cc1ccnc(Cn2c(-c3ccc(OCCN(C)C)cc3Cl)nc3c(OC4(C)CC4)nccc32)c1` [Example T381, 2-(3-chloro-4-(4-(1-methylcyclopropoxy)-1-((4-methylpyridin-2-yl)methyl)-1H-imidazo[4,5-c]pyridin-2-yl)phenoxy)-N,N-dimethylethan-1-amine] it was 0.251 µM; in that of `Cc1ccnc(Cn2c(-c3ccc(OCC(C)(C)CO)cc3Cl)nc3c(OC4(C)CC4)ncnc32)c1` [Example T383, 3-(3-chloro-4-(6-(1-methylcyclopropoxy)-9-((4-methylpyridin-2-yl)methyl)-9H-purin-8-yl)phenoxy)-2,2-dimethylpropan-1-ol], 0.126 µM.

As for `Cc1ccnc(Cn2c(-c3ccc(N4CCCNCC4)cc3Cl)nc3c(OC4(C)CC4)ncnc32)c1` [Example T384, 8-(2-chloro-4-(1,4-diazepan-1-yl)phenyl)-6-(1-methylcyclopropoxy)-9-((4-methylpyridin-2-yl)methyl)-9H-purine], the IC50 was 0.398 µM.

As for `Cc1cc(OCCCN(C)C)ccc1-c1nc2c(OC3(C)CC3)ncnc2n1Cc1cc(Cl)ccn1` [Example T387, 3-(4-(9-((4-chloropyridin-2-yl)methyl)-6-(1-methylcyclopropoxy)-9H-purin-8-yl)-3-methylphenoxy)-N,N-dimethylpropan-1-amine], the IC50 is 0.158 µM.

These data come from patent publication US20250195530A1, “POLQ INHIBITORS” (ASTRAZENECA AB, priority 2022, published 2025).
